Test results: the NIST ThermoML archive (doi:10.1021/je050085p)

Assays:
[1] = 101.33 kPa, Liquid
[2] = refractive index (Na D-line) (dimensionless); conditions: 101.33 kPa, Liquid, Standard Abbe refractometry
[3] = xn = mol fraction of the nth substance listed; conditions: 308.15 K, 101 kPa, Liquid
[4] = refractive index (Na D-line) (dimensionless); xn = mol fraction of the nth substance listed; conditions: 308.15 K, 101 kPa, Liquid, Standard Abbe refractometry
[5] = excess molar enthalpy (molar enthalpy of mixing); xn = mol fraction of the nth substance listed; conditions: 308.15 K, 101 kPa, Liquid, Flow calorimetry

OCCc1ccccc1 [2-phenylethanol]
Conditions | mass density, [1] [kg/m3] | refractive index, [2]
298.15 K | – | 1.5321
308.15 K | 1008.75 | 1.5269

OCCc1ccccc1 [2-phenylethanol] + COc1ccccc1
Conditions | excess molar enthalpy [kcal/mol] | mass density [kg/m3] | refractive index
[3], x2 = 0.0521 | – | 1007.44 | –
[3], x2 = 0.1223 | – | 1005.63 | –
[3], x2 = 0.2121 | – | 1003.26 | –
[3], x2 = 0.3153 | – | 1000.43 | –
[3], x2 = 0.4172 | – | 997.53 | –
[3], x2 = 0.5245 | – | 994.36 | –
[3], x2 = 0.617 | – | 991.55 | –
[3], x2 = 0.7479 | – | 987.5 | –
[3], x2 = 0.7673 | – | 986.9 | –
[3], x2 = 0.811 | – | 985.5 | –
[3], x2 = 0.9073 | – | 982.55 | –
[3], x2 = 0.9513 | – | 981.2 | –
[4], x2 = 0.0521 | – | – | 1.526
[4], x2 = 0.1223 | – | – | 1.5248
[4], x2 = 0.2121 | – | – | 1.5233
[4], x2 = 0.3153 | – | – | 1.5217
[4], x2 = 0.4172 | – | – | 1.52
[4], x2 = 0.5245 | – | – | 1.5182
[4], x2 = 0.617 | – | – | 1.5165
[4], x2 = 0.7479 | – | – | 1.514
[4], x2 = 0.7673 | – | – | 1.5136
[4], x2 = 0.811 | – | – | 1.5127
[4], x2 = 0.9073 | – | – | 1.5106
[4], x2 = 0.9513 | – | – | 1.5096
[5], x2 = 0.0437 | 0.0227 | – | –
[5], x2 = 0.0838 | 0.0478 | – | –
[5], x2 = 0.1206 | 0.0728 | – | –
[5], x2 = 0.1546 | 0.0948 | – | –
[5], x2 = 0.2153 | 0.134 | – | –
[5], x2 = 0.2678 | 0.164 | – | –
[5], x2 = 0.3543 | 0.207 | – | –
[5], x2 = 0.4224 | 0.228 | – | –
[5], x2 = 0.5232 | 0.25 | – | –
[5], x2 = 0.6221 | 0.269 | – | –
[5], x2 = 0.687 | 0.273 | – | –
[5], x2 = 0.767 | 0.267 | – | –
[5], x2 = 0.8145 | 0.251 | – | –
[5], x2 = 0.8682 | 0.217 | – | –
[5], x2 = 0.9006 | 0.185 | – | –
[5], x2 = 0.9294 | 0.147 | – | –
[5], x2 = 0.9634 | 0.0864 | – | –

OCCCc1ccccc1 [3-phenyl-1-propanol]
Conditions | mass density, [1] [kg/m3] | refractive index, [2]
298.15 K | – | 1.5259
308.15 K | 991.01 | 1.5214

OCCCc1ccccc1 [3-phenyl-1-propanol] + CCOc1ccccc1
Conditions | excess molar enthalpy [kcal/mol] | mass density [kg/m3] | refractive index
[3], x2 = 0.0636 | – | 988.77 | –
[3], x2 = 0.1067 | – | 987.22 | –
[3], x2 = 0.2164 | – | 983.2 | –
[3], x2 = 0.31 | – | 979.65 | –
[3], x2 = 0.417 | – | 975.46 | –
[3], x2 = 0.515 | – | 971.51 | –
[3], x2 = 0.6168 | – | 967.29 | –
[3], x2 = 0.7074 | – | 963.43 | –
[3], x2 = 0.7975 | – | 959.53 | –
[3], x2 = 0.8977 | – | 955.2 | –
[3], x2 = 0.9488 | – | 952.99 | –
[3], x2 = 0.9596 | – | 952.53 | –
[4], x2 = 0.0636 | – | – | 1.5203
[4], x2 = 0.1067 | – | – | 1.5194
[4], x2 = 0.2164 | – | – | 1.5173
[4], x2 = 0.31 | – | – | 1.5153
[4], x2 = 0.417 | – | – | 1.513
[4], x2 = 0.515 | – | – | 1.5109
[4], x2 = 0.6168 | – | – | 1.5086
[4], x2 = 0.7074 | – | – | 1.5066
[4], x2 = 0.7975 | – | – | 1.5045
[4], x2 = 0.8977 | – | – | 1.5023
[4], x2 = 0.9488 | – | – | 1.5012
[4], x2 = 0.9596 | – | – | 1.501
[5], x2 = 0.0427 | 0.0329 | – | –
[5], x2 = 0.0818 | 0.0631 | – | –
[5], x2 = 0.118 | 0.088 | – | –
[5], x2 = 0.1513 | 0.114 | – | –
[5], x2 = 0.211 | 0.146 | – | –
[5], x2 = 0.2629 | 0.167 | – | –
[5], x2 = 0.3485 | 0.193 | – | –
[5], x2 = 0.4162 | 0.212 | – | –
[5], x2 = 0.5169 | 0.236 | – | –
[5], x2 = 0.6162 | 0.257 | – | –
[5], x2 = 0.6815 | 0.267 | – | –
[5], x2 = 0.7625 | 0.267 | – | –
[5], x2 = 0.8106 | 0.255 | – | –
[5], x2 = 0.8596 | 0.225 | – | –
[5], x2 = 0.8954 | 0.194 | – | –
[5], x2 = 0.9277 | 0.152 | – | –
[5], x2 = 0.9625 | 0.0896 | – | –

OCCCc1ccccc1 [3-phenyl-1-propanol] + COc1ccccc1
Conditions | excess molar enthalpy [kcal/mol] | mass density [kg/m3] | refractive index
[3], x2 = 0.0579 | – | 990.46 | –
[3], x2 = 0.1201 | – | 989.91 | –
[3], x2 = 0.2636 | – | 988.55 | –
[3], x2 = 0.384 | – | 987.28 | –
[3], x2 = 0.4475 | – | 986.57 | –
[3], x2 = 0.5551 | – | 985.27 | –
[3], x2 = 0.6495 | – | 984.07 | –
[3], x2 = 0.7477 | – | 982.78 | –
[3], x2 = 0.8274 | – | 981.73 | –
[3], x2 = 0.8652 | – | 981.26 | –
[3], x2 = 0.913 | – | 980.67 | –
[3], x2 = 0.9588 | – | 980.14 | –
[4], x2 = 0.0579 | – | – | 1.5208
[4], x2 = 0.1201 | – | – | 1.5201
[4], x2 = 0.2636 | – | – | 1.5186
[4], x2 = 0.384 | – | – | 1.5173
[4], x2 = 0.4475 | – | – | 1.5166
[4], x2 = 0.5551 | – | – | 1.5154
[4], x2 = 0.6495 | – | – | 1.5142
[4], x2 = 0.7477 | – | – | 1.5129
[4], x2 = 0.8274 | – | – | 1.5118
[4], x2 = 0.8652 | – | – | 1.5113
[4], x2 = 0.913 | – | – | 1.5108
[4], x2 = 0.9588 | – | – | 1.5101
[5], x2 = 0.0493 | 0.0303 | – | –
[5], x2 = 0.094 | 0.059 | – | –
[5], x2 = 0.1347 | 0.0863 | – | –
[5], x2 = 0.1719 | 0.107 | – | –
[5], x2 = 0.2374 | 0.145 | – | –
[5], x2 = 0.2934 | 0.171 | – | –
[5], x2 = 0.3838 | 0.205 | – | –
[5], x2 = 0.4536 | 0.224 | – | –
[5], x2 = 0.5547 | 0.246 | – | –
[5], x2 = 0.6514 | 0.261 | – | –
[5], x2 = 0.7136 | 0.265 | – | –
[5], x2 = 0.7889 | 0.258 | – | –
[5], x2 = 0.8328 | 0.239 | – | –
[5], x2 = 0.877 | 0.207 | – | –
[5], x2 = 0.9088 | 0.175 | – | –
[5], x2 = 0.9373 | 0.133 | – | –
[5], x2 = 0.9676 | 0.0777 | – | –

COc1ccccc1 [anisole]
Conditions | mass density, [1] [kg/m3] | refractive index, [2]
298.15 K | 989.3 | 1.5153
308.15 K | 979.71 | 1.5095
